In ChEMBL document CHEMBL5113396, “Development of 4-((3-oxo-3-phenylpropyl)amino)benzenesulfonamide derivatives utilizing tail/dual-tail approaches as novel carbonic anhydrase inhibitors” (Eur J Med Chem, 2022):
pIC50, pKi: −log10 of the molar value.

Tests used:
Carbonic anhydrase 9 = Carbonic anhydrase 9 (Homo sapiens, UniProt Q16790)
Description: Inhibition of human carbonic anhydrase 9 assessed as inhibition constant incubated for 15 mins prior to testing by phenol red based stopped-flow CO2 hydration assay

MCF7 [1] = test: Antiproliferative activity against human MCF7 cells assessed as cell growth inhibition incubated for 4 hrs under hypoxia condition by MTT colorimetric assay; type: functional, cell-based; settings: MCF7, 4 h
MCF7 [2] = test: Antiproliferative activity against human MCF7 cells assessed as cell growth inhibition incubated for 4 hrs under normoxia condition by MTT colorimetric assay; type: functional, cell-based; settings: MCF7, 4 h
T47D [3] = test: Antiproliferative activity against human T47D cells assessed as cell growth inhibition incubated for 4 hrs under normoxia condition by MTT colorimetric assay; type: functional, cell-based
T47D [4] = test: Antiproliferative activity against human T47D cells assessed as cell growth inhibition incubated for 4 hrs under hypoxia condition by MTT colorimetric assay; type: functional, cell-based

SMILES | pKi (Carbonic anhydrase 9) | further results
NS(=O)(=O)c1ccccc1NCCC(=O)c1ccccc1 | 6.51 | 
NS(=O)(=O)c1ccc(NNCCC(=O)c2ccccc2)cc1 | 7.08 | 
NS(=O)(=O)c1ccc(CCNCCC(=O)c2ccccc2)cc1 | 7.06 | 
NS(=O)(=O)c1cccc(NCCC(=O)c2ccccc2)c1 | 7.12 | 
NS(=O)(=O)c1ccc(C(=O)NNCCC(=O)c2ccccc2)cc1 | 7.34 | 
NS(=O)(=O)c1ccc(NCC/C(=N\O)c2ccccc2)cc1 | 7.27 | 
NS(=O)(=O)c1ccccc1NCCC(=O)c1ccc2ccccc2c1 | 6.02 | 
NS(=O)(=O)c1cccc(NCCC(=O)c2ccc3ccccc3c2)c1 | 7.41 | 
NS(=O)(=O)c1ccc(C(=O)NNCCC(=O)c2ccc3ccccc3c2)cc1 | 7.44 | 
NS(=O)(=O)c1ccc(NCCC(=O)c2ccccc2)cc1 | 7.29 | 
NS(=O)(=O)c1ccc(NCC/C(=N/CCO)c2ccccc2)cc1 | 7.99 | pIC50 (MCF7 [1]): 5.24; pIC50 (MCF7 [2]): 4.53; pIC50 (T47D [3]): 4.37; pIC50 (T47D [4]): 4.96
NS(=O)(=O)c1ccc(NNCCC(=O)c2ccc3ccccc3c2)cc1 | 7.18 | 
NS(=O)(=O)c1ccc(NCCC(=O)c2ccc3ccccc3c2)cc1 | 8.03 | pIC50 (MCF7 [1]): 5.12; pIC50 (MCF7 [2]): 4.26; pIC50 (T47D [3]): < 4.00; pIC50 (T47D [4]): 4.72
COc1cccc2c1C(=O)c1c(O)c3c(c(O)c1C2=O)C[C@@](O)(C(=O)CO)C[C@@H]3O[C@H]1C[C@H](N)[C@H](O)[C@H](C)O1 [DOXORUBICIN] |  | pIC50 (T47D [3]): 5.49; pIC50 (T47D [4]): 5.42
